The values below come from PMC6407913, “DREADD Agonist 21 Is an Effective Agonist for Muscarinic-Based DREADDs in Vitro and in Vivo” (ACS Pharmacology & Translational Science, 2018).

Substitutions are numbered along the chain they refer to. Like-named read-outs stand apart in the source and are kept apart here.

The target of data set [1] is T1, hM4Di (Homo sapiens, UniProt P08173, A203G/Y113C).
T1 sequence (P08173 1-479 Y113C/A203G): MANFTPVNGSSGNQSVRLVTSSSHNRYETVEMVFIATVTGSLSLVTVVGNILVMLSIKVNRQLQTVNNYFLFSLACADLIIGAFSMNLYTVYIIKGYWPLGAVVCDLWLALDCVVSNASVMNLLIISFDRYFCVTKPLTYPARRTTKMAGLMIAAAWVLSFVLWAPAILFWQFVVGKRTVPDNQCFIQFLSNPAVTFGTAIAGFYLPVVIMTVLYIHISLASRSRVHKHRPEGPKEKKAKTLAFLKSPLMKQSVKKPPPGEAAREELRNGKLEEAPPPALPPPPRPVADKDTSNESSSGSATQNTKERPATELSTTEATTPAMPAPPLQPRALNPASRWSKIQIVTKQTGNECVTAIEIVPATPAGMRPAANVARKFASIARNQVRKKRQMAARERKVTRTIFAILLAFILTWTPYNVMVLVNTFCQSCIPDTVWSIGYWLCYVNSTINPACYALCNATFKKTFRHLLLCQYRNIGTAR
Description: whole-cell [3H]NMS competition binding.

Data set [2] relates to hM3Dq expressed in ARC AgRP neurons. Description: food intake, hM3Dq in ARC AgRP neurons (Agrp-ires-Cre mice).
The target in data set [3] is T2, hM4 (Homo sapiens, UniProt P08173).
T2 construct: HA (hemagglutinin); expressed in transfected cells
T2 sequence (P08173 1-479): T1 sequence (P08173 1-479 Y113C/A203G) with C113Y, G203A
Description: whole-cell [3H]NMS competition binding. The following applies: hM4, FlpIn CHO cells, mean (±SEM).

The next data set concerns the target T3, hM3Dq (Homo sapiens, UniProt P20309, A239G/Y149C).
T3 construct: expressed in transfected cells
Description: Gq-mediated calcium release (FLIPR) assay. It is filed as cell-based. The following applies: CHO cells, mean ± SEM.

In data set [4] the target is T4, hM1 (Homo sapiens, UniProt P11229).
T4 sequence (P11229 1-460): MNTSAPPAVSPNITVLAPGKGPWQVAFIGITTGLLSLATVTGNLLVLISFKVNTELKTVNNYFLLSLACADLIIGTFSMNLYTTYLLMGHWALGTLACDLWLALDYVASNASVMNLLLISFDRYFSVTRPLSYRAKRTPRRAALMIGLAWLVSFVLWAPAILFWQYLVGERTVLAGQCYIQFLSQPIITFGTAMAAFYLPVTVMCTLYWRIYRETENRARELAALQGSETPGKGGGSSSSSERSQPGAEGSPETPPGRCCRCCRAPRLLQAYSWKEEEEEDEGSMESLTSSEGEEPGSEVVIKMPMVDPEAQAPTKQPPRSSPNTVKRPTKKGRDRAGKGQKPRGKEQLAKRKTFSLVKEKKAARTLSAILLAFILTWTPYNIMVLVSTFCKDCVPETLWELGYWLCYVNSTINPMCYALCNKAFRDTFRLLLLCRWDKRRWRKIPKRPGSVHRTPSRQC
Description: IP-One accumulation assay. The following applies: wildtype hM1. It counts as cell-based.

Data set [5] addresses T5, hM1Dq (Homo sapiens, UniProt P11229, A196G/Y106C).
T5 sequence (P11229 1-460 Y106C/A196G): T4 sequence (P11229 1-460) with Y106C, A196G
Description: whole-cell [3H]NMS competition binding.

For data set [6], the target named is T4, hM1. Description: ERK1/2 phosphorylation (pERK1/2) assay. It is filed as cell-based. The following applies: wildtype hM1.
In data set [7] the target is T5, hM1Dq. Description: ERK1/2 phosphorylation (pERK1/2) assay.
Data set [8] deals with hM4Di expressed in PVH SIM1 neurons. Description: food intake, hM4Di in PVH SIM1 neurons (Sim1-Cre mice).
Data set [9] deals with T4, hM1. Description: whole-cell [3H]NMS competition binding. The following applies: hM1, FlpIn CHO cells, mean (±SEM).
For data set [10] the following is noted: cited from earlier work.
Data set [11] addresses T1, hM4Di. Description: inhibition of isoproterenol-stimulated cAMP production. It is filed as cell-based. Also noted: expressed in transfected cells. The following applies: inhibition of isoproterenol elevated cAMP, mean (±SEM). In general terms: Cyclic AMP is a second messenger, typically raised through Gs and lowered through Gi signalling.
The target of data set [12] is T5, hM1Dq. Description: IP-One accumulation assay.
The target of data set [13] is T1, hM4Di. Description: ERK1/2 phosphorylation (pERK1/2) assay.
On the set-up of data set [14]: method as in PMID 28324647. The following applies: following systemic administration of 10 mg/kg CNO; cited from earlier work.
Data set [15] in a line: brain and plasma exposure after i.p. administration. It counts as in vivo, mice. The following applies: i.p. 0.1, 1 and 10 mg/kg, 30 min after administration.
The target in data set [16] is T2, hM4. Description: inhibition of isoproterenol-stimulated cAMP production. It counts as cell-based. The following applies: hM4, inhibition of isoproterenol elevated cAMP, mean (±SEM).

T3 sequence (P20309 whole entry Y149C/A239G): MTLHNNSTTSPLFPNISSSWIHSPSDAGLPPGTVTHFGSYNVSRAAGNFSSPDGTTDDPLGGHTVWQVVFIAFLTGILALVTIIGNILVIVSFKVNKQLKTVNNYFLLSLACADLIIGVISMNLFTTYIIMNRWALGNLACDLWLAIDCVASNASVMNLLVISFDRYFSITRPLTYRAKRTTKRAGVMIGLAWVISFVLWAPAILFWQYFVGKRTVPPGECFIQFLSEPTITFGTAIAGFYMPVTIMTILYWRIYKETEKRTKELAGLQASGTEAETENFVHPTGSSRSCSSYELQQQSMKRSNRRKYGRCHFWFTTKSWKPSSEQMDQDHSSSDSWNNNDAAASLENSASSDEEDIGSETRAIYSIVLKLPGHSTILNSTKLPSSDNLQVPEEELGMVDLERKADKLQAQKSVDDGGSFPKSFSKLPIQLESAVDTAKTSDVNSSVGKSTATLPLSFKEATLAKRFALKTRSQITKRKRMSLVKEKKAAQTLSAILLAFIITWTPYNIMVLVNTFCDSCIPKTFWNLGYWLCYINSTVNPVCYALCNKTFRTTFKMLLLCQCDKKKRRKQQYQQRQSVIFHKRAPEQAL

As to `CC(=O)OCC[N+](C)(C)C` [ACh, acetylcholine], the “reduction in binding affinity at hM4Di vs wildtype” value at hM4Di [1] (hM4Di vs hM4) is given as above 10 fold.

With `C[N+]1([O-])CCN(C2=Nc3cc(Cl)ccc3Nc3ccccc32)CC1` [CNO, clozapine-N-oxide], the “food intake, light cycle, sated mice” value is “increases feeding behavior in sated mice” in data set [2] (AgRP-ires-Cre mice with AAV-DIO-hM3Dq-mCherry, i.p.) and “increases feeding behavior in sated mice” in [8] (SIM1-Cre mice with AAV-DIO-hM4Di-mCherry, i.p.). In addition, the “food intake in control mice” value is recorded as “neither C21 nor CNO affected feeding behavior” in data set [2] (wildtype (non-Cre-expressing) littermates injected with AAV-DIO-hM3Dq-mCherry) and “neither C21 nor CNO ligand influenced food intake” in data set [8] (wildtype (non-Cre-expressing) littermates injected with AAV-DIO-hM4Di-mCherry). In addition, the “higher binding affinity at hM4Di than at wildtype hM4” value on hM4Di [1] (hM4Di vs hM4) was above 10 fold. Further, the negative logarithm of the Ki (pKi) at hM4Di [1] (hM4Di, FlpIn CHO cells, [3H]-NMS, mean (±SEM)) was 6.30 (±0.22) N = 3; on hM4 [3], 4.85 (±0.05) N = 3; on hM1Dq [5] (hM1Dq, FlpIn CHO cells, [3H]-NMS, mean (±SEM)) it was 6.74 (±0.10) N = 9; at hM1 [9], 5.10 (±0.03) N = 7. Besides, the pEC50 calcium mobilization on hM3Dq worked out at 7.26±0.07. The “agonist activity in IP1 assay” value at hM1 [4] is on record as “no agonist activity”. On hM1Dq [5] (hM1Dq vs hM1), the “higher binding affinity at hM1Dq than at wildtype hM1” value is on record as above 10 fold. In addition, the “agonist activity in pERK1/2 assay” value on hM1 [6] was “no agonist activity”. Besides, the “pEC50 pERK” value on hM1Dq [7] (hM1Dq, CHO cells, mean (±SEM)) is on record as 7.70 (±0.25) N = 11; on hM4Di [13] (hM4Di, CHO cells, mean (±SEM)), 6.89 (±0.12) N = 3. Moreover, the “metabolic transformation to clozapine” value is recorded as “approximately 10%” in [10] (humans, nonhuman primates and guinea pigs); “a few percent” in data set [10] (rodents). The “pEC50 cAMP” value at hM4Di [11] is given as 7.29 (±016) N = 4. Further, the “pEC50 IP1” value on hM1Dq [12] (hM1Dq, CHO cells, mean (±SEM)) is reported as 8.61 (±0.03) N = 10.

In the case of `Clc1ccc2c(c1)N=C(N1CCNCC1)c1ccccc1N2` [NDMC, N-desmethylclozapine], in data set [14], the “level in cerebrospinal fluid (CSF)” value is on record as 43 nM.

As to `CN1CCN(C2=Nc3cc(Cl)ccc3Nc3ccccc32)CC1` [clozapine, reference compound], the “level in cerebrospinal fluid (CSF)” value in data set [14] is 34 nM.

In the case of `CN1CCN(C2=Nc3ccccc3Cc3ccccc32)CC1` [perlapine], the inhibition constant Ki on hM4Di [1] was 67.6 nM; on hM4 [3] it was 263 nM; at hM1Dq [5], 26.3 nM; at hM1 [9] it was 91.2 nM. For the same compound, the EC50 was 8.32 nM at hM3Dq (read-out: pEC50 calcium mobilization (converted)); 56.2 nM at hM4 [16]; 158 nM at hM1Dq [7]; 63.1 nM on hM4Di [11]; 4.17 nM at hM1Dq [12]; 53.7 nM on hM4Di [13]. In addition, in [15], the “brain and plasma levels” value was “measurable brain and plasma levels”. The metabolism to clozapine entry in [15] was “no evidence of metabolism to clozapine”. The “agonist activity in IP1 assay” value on hM1 [4] is given as “no agonist activity”. Besides, the “agonist activity in pERK1/2 assay” value on hM1 [6] is recorded as “no agonist activity”.

The term pKi denotes the negative decadic logarithm of the Ki, by convention in mol/L. Higher therefore signals a low Ki. A word on the Ki: it is a measure of affinity in units of concentration, obtained from inhibition or displacement. A low value points to a stronger hold on the target.
